Results reported in patent publication US10011573B2, “Human androgen receptor DNA-binding domain (DBD) compounds as therapeutics and methods for their use” (The University of British Columbia, priority 2014, dated 2018).

Assays:
PSA [1] = experiment: Prostate-specific antigen (PSA) assay, secreted PSA from the eGFP assay plates; format: cell-based, human; settings: Homo sapiens; LNCaP eGFP cells, R1881, secreted PSA
Procedure: 3. Prostate-specific antigen (PSA) assay: The evaluation of PSA levels secreted into the media was performed in parallel to the eGFP assay using the same plates. After cells were incubated for 3 days, 150 μl of the media was taken from each well, and added to 150 μl of PBS.

ER-α = biological target: T1, ER-α (Homo sapiens, UniProt P03372); experiment: Estrogen-response element-luciferase assay in MCF-7 cells; format: cell-based
T1 construct: endogenous in cells; host or cells: MCF-7 with ERE-luciferase reporter
T1 sequence (P03372 whole entry): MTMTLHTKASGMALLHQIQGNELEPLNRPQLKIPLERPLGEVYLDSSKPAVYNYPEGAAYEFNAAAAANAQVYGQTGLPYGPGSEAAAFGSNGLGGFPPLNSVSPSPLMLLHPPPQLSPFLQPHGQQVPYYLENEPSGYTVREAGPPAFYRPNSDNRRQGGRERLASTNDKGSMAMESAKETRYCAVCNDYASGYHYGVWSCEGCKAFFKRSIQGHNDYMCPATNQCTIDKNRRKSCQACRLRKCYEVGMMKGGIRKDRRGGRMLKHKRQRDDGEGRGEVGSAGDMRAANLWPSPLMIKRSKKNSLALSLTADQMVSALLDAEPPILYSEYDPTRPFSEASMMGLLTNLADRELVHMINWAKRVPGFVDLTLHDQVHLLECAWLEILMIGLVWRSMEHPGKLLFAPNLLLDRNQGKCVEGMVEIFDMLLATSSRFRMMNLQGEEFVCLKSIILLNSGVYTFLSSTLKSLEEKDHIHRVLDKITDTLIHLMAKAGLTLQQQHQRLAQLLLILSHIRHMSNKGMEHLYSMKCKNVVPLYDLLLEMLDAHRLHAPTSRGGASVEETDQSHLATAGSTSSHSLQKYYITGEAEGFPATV
Procedure: 9. Transient Transfection: The PC3/MCF7 cells were seeded into a 96-well plate (2,000 cells/well). After 24 hrs, the wild-type AR (50 ng/well)/AR mutants and AR3TK-luciferase plasmids (1:3) were co-transfected into PC3 cells or ERE-luciferase (50 ng/well) was transfected into MCF7 cells using transfection reagent TT20. 24 hrs after the transfection, the cells were treated with the compounds at various concentrations. And 24 hrs later, the cells were lysed and the reading was taken using a luminometer.

PSA [2] = experiment: PSA measurements, LNCaP cells, 1 nM R1881, 2 days; format: cell-based, human
Procedure: Following the incubation period, 150 μl of the media was taken from each well, and PSA levels were quantified using a Cobas e411 analyzer (Roche Applied Science™) according to the manufacturer's instructions. The same instrument was used to analyze serum PSA from mice during the in vivo analysis.

FKBP5 [3] = experiment: Western blot FKBP5 protein in R1-AD1 cells; format: cell-based, human
Procedure: (§1) Cell lysates (40 μl) from luciferase assays (96-well plate) were separated on a 10% SDS-polyacrylamide mini gel. Protein was transferred to methanol-charged PVDF membranes and probed with anti-AR441 (mouse, Sigma™) monoclonal primary antibody. Blots were also probed with polyclonal anti-actin (rabbit, Sigma™) to show equal loading and polyclonal anti-PARP/anti-cleaved PARP (rabbit, Sigma™) to test for induction of apoptosis. Lysates from CWR-R1 cells were additionally probed with polyclonal anti-FKBP5 (rabbit, Sigma™) following 2 days of incubation with compounds.

FKBP5 [4] = experiment: Western blot FKBP5 protein in R1-D567 cells; format: cell-based, human
Procedure: as §1

[5] = biological target: T2, AR(1-653) truncation mutant (Homo sapiens, UniProt P10275); settings: 25 μM, PC3 cells, ARR3tk-luciferase; cited from earlier work
T2 construct: host or cells: PC3 co-transfected with ARR3tk-luciferase
T2 sequence (P10275 1-653, change not shown): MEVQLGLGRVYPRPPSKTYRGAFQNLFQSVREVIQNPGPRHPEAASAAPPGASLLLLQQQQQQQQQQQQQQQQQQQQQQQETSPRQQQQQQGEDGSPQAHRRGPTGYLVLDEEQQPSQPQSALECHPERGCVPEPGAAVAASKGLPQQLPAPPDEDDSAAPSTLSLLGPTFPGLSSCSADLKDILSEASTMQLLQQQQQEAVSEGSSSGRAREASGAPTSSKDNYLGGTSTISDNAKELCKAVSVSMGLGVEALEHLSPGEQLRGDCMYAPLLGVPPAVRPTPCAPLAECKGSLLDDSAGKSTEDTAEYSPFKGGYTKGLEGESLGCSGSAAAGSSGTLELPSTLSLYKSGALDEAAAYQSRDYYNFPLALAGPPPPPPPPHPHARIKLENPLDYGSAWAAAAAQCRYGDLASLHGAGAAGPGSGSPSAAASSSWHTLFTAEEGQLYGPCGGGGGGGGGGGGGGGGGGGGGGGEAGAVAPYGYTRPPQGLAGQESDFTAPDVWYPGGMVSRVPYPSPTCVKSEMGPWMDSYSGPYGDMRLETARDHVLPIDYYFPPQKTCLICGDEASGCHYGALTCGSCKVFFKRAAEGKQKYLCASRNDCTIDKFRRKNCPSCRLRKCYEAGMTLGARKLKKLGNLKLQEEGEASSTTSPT

| SMILES | IC50 (PSA [1]) | effect on ER transcriptional activity (ER-α) | IC50 secreted PSA (PSA [2]) | FKBP5 protein expression, R1-AD1 cells (FKBP5 [3]) | FKBP5 protein expression, R1-D567 cells (FKBP5 [4]) | inhibition of AR(1-653) truncation mutant [5] |
| --- | --- | --- | --- | --- | --- | --- |
| CNC(=O)c1ccc(N2C(=S)N(c3ccc(C#N)c(C(F)(F)F)c3)C(=O)C2(C)C)cc1F [enzalutamide, reference compound] | 120 nM | considerable cross-reactivity | sub-micromolar | only affected R1-AD1 cells | only affected R1-AD1 cells |  |
| CC(C)(c1ccc(OCC(O)CO)cc1)c1ccc(OCC(O)CCl)cc1 (stereo not drawn) [EPI-001] |  |  |  |  |  | ~80% |
